Data set [1] relates to H2030 cells. Put plainly: TGFβ-induced EMT gene expression in H2030 cells. In kind it is cell-based, human. As to conditions: 48 h. The protocol: Total RNA was extracted with the RNeasy Plus Mini Kit from Qiagen (Hilden, Germany) according to the manufacturer’s instructions. One microgram of RNA was reverse-transcribed using an iScript Reverse Transcription Supermix from Bio-Rad Laboratories (Hercules, CA, USA) to make single-stranded cDNA. The cDNAs were then mixed with Qi SYBR Green Supermix (Bio-Rad) for quantitative RT-PCR assay using a Bio-Rad I-cycler IQ quantitative thermocycler. All PCR samples were prepared in triplicate wells in a 96-well plate. After 40 cycles of PCR, melt curves were examined in order to ensure primer specificity. Fold changes in gene expression were calculated using the ΔΔCt method. Primers used for mouse were as follows: Oaz1 (5′-CCACTGCTTCGCCAGAGAG-3′) and (5′-CCCGGACCCAGGTTACTA-3′), Gli1 (5′- […]-3′ and 5′- GCT GATCCAGCCTAAGGTTCTC-3′), Ptch1 (5′-CCATCGGCGACAAGAACC-3′ and 5′-[…]-3′), Thbs1 (5′-[…]-3′ and 5′-CGGGGATCAGGTTGGCATT-3′), Cryab (5′-[…]-3′ and 5′-[…]-3′), Egr2 (5′-[…]-3′ and 5′-[…]-3′), CTGF (5′-GGGCCTCTTCTGCGATTTC-3′ and 5′-[…]-3′). […]
Figure 8 Inhibition of TGFβ-induced EMT in NSCLC cells. […] After 48 h, RNA was extracted and analyzed by Q-RT-PCR for the expression of the genes as indicated and normalized to GAPDH expression. […]

The test system of data set [2] is H2030 cells. Put plainly: Cell counting (proliferation) assay in H2030 cells. It is filed as cell-based, human. As to conditions: for IC50 / IC90: Homo sapiens, NCI-H2030. How it is done:
(§1) A549 and H2030 cells cultured in RPMI 1640 containing 5% FBS in 12 well-plates at 20% confluence were treated with Oxy210 for 6 days and then trypsinized, spun down and resuspended in fresh medium. For the Carboplatin (CP) and Oxy210 co-treatment experiments, A549 cells cultured in RPMI 1640 containing 2% FBS in 12 well-plates at 20% confluence were treated with CP at different concentrations in the presence or absence of Oxy210 for 6 days. For the TGFβ-induced drug resistance assay, A549 cells cultured in RPMI 1640 containing 2% FBS in 12 well-plates at 10% confluence were pre-treated with TGFβ1 alone or together with Oxy210 for 3 days, and then treated with 20 μM CP for 4 days. An aliquot of cell suspension was applied to a hemocytometer and the cells were then counted under a light microscope.
(§2) Statistical analyses were performed using the StatView 5 program (SAS Institute, Cary, NC, USA). All p values were calculated using ANOVA and Fisher’s projected least significant difference (PLSD) significance test. A value of p < 0.05 was considered significant. The IC 50 dose-response curves shown in Figure 4b and Figure 7a–c were modeled using a five-parameter logistic model. This model allows for asymmetric curves and automatically estimates the mean maximum and minimum response. Based on this model, IC 50 values were estimated corresponding to the dose halfway between min and max response. Models of dose versus response and dose versus log response were also evaluated (see Supplementary Materials). The R square statistic was computed as a measure of model fit.
(§3) Figure 7 Inhibition of NSCLC cell proliferation by Oxy210. A549 (a), (c) and H2030 (b) cells were treated with the test agents as indicated in RPMI 1640 containing 5% FBS for 5 days and then were trypsinized and counted as described in Methods and Materials section. Data from a representative experiment are reported as the mean of triplicate determinations ± SD (* p < 0.05 vs. control; ** p < 0.01 vs. control).

A further data set concerns Liver X Receptor (LXR). The data set is described as follows: LXR activity, summary of drug-like properties. It is filed as cell-based.
For another data set, the system named is A549 cells. The data set is described as follows: Cell counting (proliferation) assay in A549 cells. It is filed as cell-based, human. Also on record: IC10 Estimate, dataset 2 - Fig 7a, log 10 scale Y: unit not given here. As to conditions: for IC50 / IC90: Homo sapiens. The protocol:
as §1, §2, §3

The term IC90 denotes the point of the concentration-response curve where the effect stands at 90%.

Read-outs that look alike come from different tables or passages of the source.

For the compound `C[C@]12CC[C@H]3[C@@H](CC=C4C[C@@H](O)CC[C@@]43C)[C@@H]1CC[C@@H]2[C@](C)(O)CCc1cccnc1` [Oxy210, (3S,8S,9S,10R,13S,14S,17S)-17-((R)-2-hydroxy-4-(pyridin-3-yl)butan-2-yl)-10,13-dimethyl-2,3,4,7,8,9,10,11,12,13,14,15,16,17-tetradecahydro-1H-cyclopenta[a]phenanthren-3-ol], in the data set with H2030 cells [1], the “genes associated with TGFβ-induced EMT” value is “complete suppression”. Moreover, the “IC10 Estimate, dataset 3 - Fig 7b, log 10 scale Y” value with H2030 cells [2] (H2030 cells/well, log 10 scale Y) is recorded as 1.89. For the same compound, the IC10 Estimate, dataset 3 - Fig 7b, original scale Y in the data set on H2030 cells [2] (H2030 cells/well, original scale Y) was 420 nM. Also, the IC50 in the data set with H2030 cells [2] (H2030 cells, 5% FBS, ± SE, read-out: IC50, anti-proliferative effect (cell counting)) was 1660 ± 250 nM; in the data set on H2030 cells [2] (H2030 cells/well, log 10 scale Y, read-out: IC 50 Estimate, dataset 3 - Fig 7b, log 10 scale Y (converted)), 2520 nM; in the data set on A549 cells (A549 cells, 5% FBS, ± SE, read-out: IC50, anti-proliferative effect (cell counting)) it was 2630 ± 1010 nM; with A549 cells (A549 cells/well, log 10 scale Y, read-out: IC 50 Estimate, dataset 2 - Fig 7a, log 10 scale Y (converted)), 4230 nM. In addition, the IC90 in the data set with H2030 cells [2] (H2030 cells/well, log 10 scale Y, read-out: IC90 Estimate, dataset 3 - Fig 7b, log 10 scale Y (converted)) is 3370 nM; in the data set with H2030 cells [2] (H2030 cells/well, original scale Y, read-out: IC90 Estimate, dataset 3 - Fig 7b, original scale Y), 4090 nM; in the data set with A549 cells (A549 cells/well, log 10 scale Y, read-out: IC90 Estimate, dataset 2 - Fig 7a, log 10 scale Y (converted)), 6870 nM; with A549 cells (A549 cells/well, original scale Y, read-out: IC90 Estimate, dataset 2 - Fig 7a, original scale Y) it was 4180 nM. The LXR activity entry in the data set with Liver X Receptor (LXR) was “devoid of undesirable Liver X Receptor (LXR) activity”. In the data set on A549 cells (A549 cells, 2 μM Oxy210), the “fold reduction (left shift) of the IC50 of CP” value is recorded as “about four-fold”. In the data set on A549 cells (A549 cells, non-cytotoxic concentrations of CP (1 to 10 μM)), the “anti-proliferation potential of CP when combined” value was “significantly improved”. Moreover, in the data set on A549 cells (A549 cells/well, log 10 scale Y), the “IC10 Estimate, dataset 2 - Fig 7a, log 10 scale Y” value is recorded as 2.61. In the data set with A549 cells (A549 cells/well, original scale Y), the IC10 Estimate, dataset 2 - Fig 7a, original scale Y is 1920 nM.

The record behind these values is PMC6829886, “Inhibition of Non-Small Cell Lung Cancer Cells by Oxy210, an Oxysterol-Derivative that Antagonizes TGFβ and Hedgehog Signaling” (Cells, 2019).
